US5459158A, “Pharmaceutical compositions of indazoles and methods of use thereof” (priority 1992, dated 1995)
Like-named read-outs stand apart in the source and are kept apart here.

Experiments:
[1] = molecular target: T1, rat cerebellar nitric oxide synthase (NOS) (Rattus norvegicus, UniProt P29476); test: inhibition of rat cerebellar nitric oxide synthase (NOS); type: biochemical
T1 construct: from tissue
Protocol: Nitric oxide synthase (NOS) activity was determined in vitro by the method of Dwyer et al., Biochem. Biophys. Res. Commun. 1991, 176, 1136-1141. Mice (male, LACA, 28-32 g) were killed by cervical dislocation. Cerebella were removed, homogenized (1-10 w/v in 20 mM Tris buffer containing 2 mM EDTA, pH. 7.4) and aliquots (25 μl) incubated (37° C.) with L-arginine (120 nM) containing 0.5 μCi [^3 H]-arginine (specific activity 62 Ci mmol^-1), NADPH (0.5 mM) and CaCl2 (0.75 mM). […] Final incubation volume was 105 μl. After 15 minutes the reaction was stopped by addition of 3 ml HEPES buffer (20 mM containing 2 mM EDTA, pH 5.5) and the [^3 H]-citrulline produced was separated by cation exchange chromatography on 0.5 ml columns of Dowex AG50-W8 Na^+ form. [^3 H]-Citrulline was quantitated by liquid scintillation spectroscopy of duplicate 1 ml aliquots of the flow-through.

mice = test: anti-nociceptive activity, formalin-induced hindpaw licking assay; type: in vivo, mouse; conditions: for Inhibition of licking (%): 50 mg kg^-1 i.p., late phase
Protocol: Control animals received 10 ml kg^-1 of arachis oil or saline (0.9% w/v NaCl).
The percentage inhibition of formalin-induced licking in the late phase following the administration of 50 mg kg^-1 i.p. of the indazoles is shown in the Table below.

mouse cerebellar NOS [2] = molecular target: T2, mouse cerebellar NOS (Mus musculus, UniProt Q9Z0J4); test: inhibition of mouse cerebellar nitric oxide synthase (NOS) activity in vitro; type: biochemical; conditions: for IC50: mouse cerebella homogenate, 15 minutes, 37° C., mean ± s.e. mean, n=6
T2 construct: Cerebella were removed, homogenized; from tissue; host or cells: cerebellum of male LACA mice, crude homogenate

[3] = blood pressure (MAP) of urethane-anaesthetized mice; type: in vivo, mouse; conditions: for mean arterial pressure (MAP): n=4
mouse cerebellar NOS [4] = molecular target: T2, mouse cerebellar NOS; test: mouse cerebellar NOS activity after i.p. administration (ex vivo); type: in vivo; conditions: n=6, P<0.01
Protocol: Nitric oxide synthase (NOS) activity was determined in vitro by the method of Dwyer et al., Biochem. Biophys. Res. Commun. […] Mice (male, LACA, 28-32 g) were killed by cervical dislocation. […] Final incubation volume was 105 μl. After 15 minutes the reaction was stopped by addition of 3 ml HEPES buffer (20 mM containing 2 mM EDTA, pH 5.5) and the [^3 H]-citrulline produced was separated by cation exchange chromatography on 0.5 ml columns of Dowex AG50-W8 Na^+ form. [^3 H]-Citrulline was quantitated by liquid scintillation spectroscopy of duplicate 1 ml aliquots of the flow-through.
Cerebella were removed, homogenized and NOS activity determined as described above.

nitric oxide synthase = conditions: Moore et al., British Journal of Pharmacology, 1991, 102, 198-202; cited from earlier work
[5] = rat cerebella, read-out: IC50 NOS
[6] = ratio of IC50 on mouse cerebellar NOS in vitro

T2 sequence (Q9Z0J4 whole entry): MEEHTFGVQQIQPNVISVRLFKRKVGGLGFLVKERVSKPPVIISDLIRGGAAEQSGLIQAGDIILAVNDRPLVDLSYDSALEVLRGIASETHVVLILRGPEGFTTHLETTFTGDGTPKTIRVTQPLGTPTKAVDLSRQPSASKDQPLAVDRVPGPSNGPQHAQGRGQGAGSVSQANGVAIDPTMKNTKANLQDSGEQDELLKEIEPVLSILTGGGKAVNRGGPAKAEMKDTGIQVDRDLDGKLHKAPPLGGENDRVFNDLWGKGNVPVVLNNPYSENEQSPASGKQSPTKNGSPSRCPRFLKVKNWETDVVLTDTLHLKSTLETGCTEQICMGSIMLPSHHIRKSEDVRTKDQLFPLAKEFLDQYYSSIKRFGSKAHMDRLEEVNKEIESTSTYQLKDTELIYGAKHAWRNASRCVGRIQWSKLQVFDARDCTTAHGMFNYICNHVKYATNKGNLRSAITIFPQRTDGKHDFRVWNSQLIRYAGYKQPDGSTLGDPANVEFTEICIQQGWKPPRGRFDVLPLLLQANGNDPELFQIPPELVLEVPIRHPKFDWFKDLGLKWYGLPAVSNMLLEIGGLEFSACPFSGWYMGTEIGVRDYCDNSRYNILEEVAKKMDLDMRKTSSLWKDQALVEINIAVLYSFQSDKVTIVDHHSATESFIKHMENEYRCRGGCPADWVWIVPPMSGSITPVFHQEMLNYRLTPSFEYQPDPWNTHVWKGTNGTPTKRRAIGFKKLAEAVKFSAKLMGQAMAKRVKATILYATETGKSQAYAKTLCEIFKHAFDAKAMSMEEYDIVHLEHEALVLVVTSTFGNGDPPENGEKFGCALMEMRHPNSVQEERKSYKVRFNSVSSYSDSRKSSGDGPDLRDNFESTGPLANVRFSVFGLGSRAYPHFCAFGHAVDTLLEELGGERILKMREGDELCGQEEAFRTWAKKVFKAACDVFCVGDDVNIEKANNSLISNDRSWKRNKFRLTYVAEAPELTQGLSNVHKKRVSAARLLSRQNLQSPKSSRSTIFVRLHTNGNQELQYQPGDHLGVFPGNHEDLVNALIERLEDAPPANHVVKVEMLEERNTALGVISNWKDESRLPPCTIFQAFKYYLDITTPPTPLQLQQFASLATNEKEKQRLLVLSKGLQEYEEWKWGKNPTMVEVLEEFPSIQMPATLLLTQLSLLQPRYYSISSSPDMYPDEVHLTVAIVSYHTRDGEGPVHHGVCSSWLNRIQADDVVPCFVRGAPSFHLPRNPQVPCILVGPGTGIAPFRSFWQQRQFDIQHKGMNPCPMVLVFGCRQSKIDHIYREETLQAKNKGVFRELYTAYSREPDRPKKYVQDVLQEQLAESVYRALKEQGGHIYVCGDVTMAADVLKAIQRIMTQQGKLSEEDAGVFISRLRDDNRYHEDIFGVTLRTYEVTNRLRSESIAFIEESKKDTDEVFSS

O=[N+]([O-])c1ccc2[nH]nc(Cl)c2c1 [3-chloro-5-nitroindazole]
IC50 [1, 5]: 177 µM

Clc1n[nH]c2ccccc12 [3-chloroindazole]
IC50 [1, 5]: 100 µM

O=[N+]([O-])c1ccc2[nH]ncc2c1 [5-nitroindazole]
IC50 [1, 5]: 56 µM

O=[N+]([O-])c1ccc2cn[nH]c2c1 [6-nitroindazole]
Inhibition of licking (%) (mice): 67.0 ± 12.0% | IC50 [1, 5]: 32 µM

O=[N+]([O-])c1cccc2cn[nH]c12 [7-nitroindazole]
IC50 (mouse cerebellar NOS [2]): 0.47 ± 0.01 µM | times more potent than L-NAME (mouse cerebellar NOS [2]; [6]): 1.8 times | times more potent than L-NMMA (mouse cerebellar NOS [2]; [6]): 5 times | mean arterial pressure (MAP) ([3]; 25 mg kg^-1 i.p., cf 51.6±4.4 before administration): 47.4±5.1 mmHg | mean arterial pressure (MAP) ([3]; 80 mg kg^-1 i.p., cf 49.5±2.9 before administration): 43.9±5.3 mmHg | mean arterial pressure (MAP), change in words ([3]; 25 and 80 mg kg^-1 i.p., over 45 minutes): did not increase mean arterial pressure | Inhibition of licking (%) (mice): 100% | early phase response of formalin-induced hindpaw licking (in words) (mice; 10, 25 and 50 mg kg^-1 i.p., early phase (0-5 minutes)): without influencing the early phase response | inhibition of late phase formalin-induced hindpaw licking (in words) (mice; 10, 25 and 50 mg kg^-1 i.p., late phase (15-30 minutes)): dose-related inhibition of late phase formalin-induced hindpaw licking | ED50 for the anti-nociceptive effect (mice; i.p., mice): 26 mg/kg | ED50 for the anti-nociceptive effect (equivalent) (mice; i.p., mice, converted from 26 mg kg^-1): 159.5 µmol/kg | decrease of mouse cerebellar NOS activity (mouse cerebellar NOS [4]; 25 mg kg^-1, i.p., 15 minutes thereafter): over 55% | mouse cerebellar NOS activity (mouse cerebellar NOS [4]; 25 mg kg^-1, i.p., 15 minutes, cf 9.1±0.26 arachis oil-injected controls): 3.9±0.06 nmol citrulline mg^-1 protein 15 min^-1

COC(=O)[C@@H](N)CCCNC(=N)N[N+](=O)[O-] [L-NAME, L-N^G -nitroarginine methyl ester, reference compound]
IC50 (mouse cerebellar NOS [2]): 0.87 ± 0.02 µM | block of nitric oxide synthase in brain and peripherally (nitric oxide synthase): blocks this enzyme not only in the brain but also peripherally | mouse cerebellar NOS activity (mouse cerebellar NOS [4]; 50 mg kg^-1, i.p., 15 minutes, cf 8.33±0.15 saline-injected controls): 4.46±0.012 pmol citrulline mg^-1 protein 15 min^-1 | inhibition at 50 mg/kg (mouse cerebellar NOS [4]; mouse, ip, 50 mg kg^-1, i.p., 15 minutes): 46.2 ± 1.6%

CNC(=N)NCCC[C@H](N)C(=O)O [L-NMMA, L-N^G -monomethyl arginine, reference compound]
IC50 (mouse cerebellar NOS [2]): 2.37 ± 0.03 µM

c1ccc2[nH]ncc2c1 [indazole]
Inhibition of licking (%) (mice): 83.2 ± 12.2% | IC50 [1]: 232 µM
